Active and inactive are the calls of the source. The rule behind the calls is not given here.
Experiments:
[1] = AUC (0 to t) in Sprague-Dawley rat at 3.5 mg/kg, iv measured for 24 hrs by LC-MS/MS analysis; format: ADME, organism-based; conditions: in vivo
Mus musculus [2] = assay: (§1) Anti-inflammatory activity in C57BL/6 mouse model of LPS-induced acute lung injury assessed as decrease in disruption of epithelial cell structures in lung at 10 mg/kg, ip treated for 3 days followed by LPS treatment after 1 hr post-compound administration on fourth day measured after 18 hrs post-LPS treatment by H and E staining based analysis; format: functional, organism-based; conditions: time 91.0 hrs
Procathepsin L [3] = molecular target: T1, Procathepsin L (Homo sapiens, UniProt P07711); assay: Induction of thermal stabilization of pro-CTSL in protein lysate extracted from human THP-1 cells pretreated for 6 hrs followed by heat exposure at 37 to 62 degreeC for 3 mins by CETSA; format: subcellular; conditions: time 363.0 min
Target sequence in this assay (P07711 114-333 limits assumed): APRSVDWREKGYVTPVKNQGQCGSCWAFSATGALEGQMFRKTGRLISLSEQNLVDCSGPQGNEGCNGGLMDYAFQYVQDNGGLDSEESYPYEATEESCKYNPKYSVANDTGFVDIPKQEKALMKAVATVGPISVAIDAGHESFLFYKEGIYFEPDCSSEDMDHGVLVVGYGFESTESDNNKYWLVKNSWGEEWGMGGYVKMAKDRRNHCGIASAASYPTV

Mus musculus [4] = assay: as §1, with “IL-1beta mRNA level” for “disruption of epithelial cell structures”, “RT-qPCR” for “H and E staining based”; format: functional, organism-based; conditions: time 91.0 hrs
RAW264.7 [5] = assay: Anti-inflammatory activity against mouse RAW264.7 cells assessed as inhibition of LPS-induced COX-2 level by Western blot analysis; format: functional, cell-based; conditions: dose 50-500 nM
RAW264.7 [6] = assay: Anti-inflammatory activity against mouse RAW264.7 cells assessed as inhibition of LPS-induced p38 phosphorylation at 50 to 500 nM by Western blot analysis; format: functional, cell-based; conditions: dose 50-500 nM
[7] = AUC (0 to infinity) in Sprague-Dawley rat at 3.5 mg/kg, po measured for 24 hrs by LC-MS/MS analysis; format: ADME, organism-based; conditions: in vivo
RAW264.7 [8] = assay: Anti-inflammatory activity against mouse RAW264.7 cells assessed as inhibition of LPS-induced IL-1beta mRNA level at 50 to 500 nM by RT-qPCR analysis; format: functional, cell-based; conditions: dose 50-500 nM
RAW264.7 [9] = assay: Cytotoxicity against mouse RAW264.7 cells assessed as cell viability at 0.5 to 5 uM; format: toxicity, cell-based; conditions: raw264.7, 5 µM, dose 0.5-5 µM
HBE [10] = assay: Anti-inflammatory activity against HBE cells assessed as inhibition of LPS-induced p-p65 level pretreated for 30 mis followed by LPS treatment for 16 hrs by Western blot analysis; format: functional, cell-based; conditions: Homo sapiens, dose 0.5-5 µM, time 16.5 hrs
RAW264.7 [11] = assay: Anti-inflammatory activity against mouse RAW264.7 cells assessed as inhibition of LPS-induced IL-6 level
[12] = AUC (0 to t) in Sprague-Dawley rat at 3.5 mg/kg, po measured for 24 hrs by LC-MS/MS analysis; format: ADME, organism-based; conditions: in vivo
Mus musculus [13] = assay: In vivo inhibition of mature CTSL in lung of C57BL/6 mouse model of LPS-induced acute lung injury at 10 to 20 mg/kg, ip treated for 3 days followed by LPS treatment after 1 hr post-compound administration on fourth day measured after 18 hrs post-LPS treatment by Western blot analysis; format: functional, organism-based; conditions: dose 10-20 mg/kg, time 91.0 hrs
Mus musculus [14] = assay: as §1, with “endothelial” for “epithelial”; format: functional, organism-based; conditions: time 91.0 hrs
[15] = Cmax in Sprague-Dawley rat at 3.5 mg/kg, iv measured for 24 hrs by LC-MS/MS analysis; format: ADME, organism-based; conditions: in vivo
[16] = Anti-inflammatory activity against HBE cells assessed as inhibition of LPS-induced IL-6 level at 5 uM pretreated for 30 mins followed by LPS treatment for 24 hrs by ELISA relative to control; format: functional; conditions: Homo sapiens, time 24.5 hrs
Mus musculus [17] = assay: as §1, with “TNF-alpha mRNA level” for “disruption of epithelial cell structures”, “RT-qPCR” for “H and E staining based”; format: functional, organism-based; conditions: time 91.0 hrs
[18] = Cmax in Sprague-Dawley rat at 3.5 mg/kg, po measured for 24 hrs by LC-MS/MS analysis; format: ADME, organism-based; conditions: in vivo
HBE [19] = assay: Anti-inflammatory activity against HBE cells assessed as inhibition of LPS-induced p-Ikappa-Balpha level pretreated for 30 mis followed by LPS treatment for 16 hrs by Western blot analysis; format: functional, cell-based; conditions: Homo sapiens, dose 0.5-5 µM, time 16.5 hrs
[20] = Cmax in Sprague-Dawley rat at 3.5 mg/kg, ip measured for 24 hrs by LC-MS/MS analysis; format: ADME, organism-based; conditions: in vivo
Mus musculus [21] = assay: Anti-inflammatory activity in C57BL/6 mouse model of LPS-induced acute lung injury assessed as decrease in total protein concentration in BALF at 10 mg/kg, ip treated for 3 days followed by LPS treatment after 1 hr post-compound administration on fourth day measured after 18 hrs post-LPS treatment; format: functional, organism-based; conditions: time 91.0 hrs
Mus musculus [22] = assay: as §1, with “inflammatory” for “disruption of epithelial”, “infiltration” for “structures”; format: functional, organism-based; conditions: time 91.0 hrs
Mus musculus [23] = assay: as §1, with “pulmonary edema” for “disruption of epithelial cell structures”; format: functional, organism-based; conditions: time 91.0 hrs
cells [24] = conditions: Homo sapiens, HBE
Description: Anti-inflammatory activity against HBE cells assessed as inhibition of LPS-induced IL-6 level pretreated for 30 mins followed by LPS treatment for 24 hrs by ELISA

[25] = AUC (0 to infinity) in Sprague-Dawley rat at 3.5 mg/kg, iv measured for 24 hrs by LC-MS/MS analysis; format: ADME, organism-based; conditions: in vivo
cells [26] = conditions: Homo sapiens, HBE; remark: listed apart in the source
Description: Anti-inflammatory activity against HBE cells assessed as inhibition of LPS-induced IL-8 level pretreated for 30 mins followed by LPS treatment for 24 hrs by ELISA

Mus musculus [27] = assay: Anti-inflammatory activity in C57BL/6 mouse model of LPS-induced acute lung injury assessed as decrease in wet to dry ratio in lung at 10 mg/kg, ip treated for 3 days followed by LPS treatment after 1 hr post-compound administration on fourth day measured after 18 hrs post-LPS treatment; format: functional, organism-based; conditions: time 91.0 hrs
Mus musculus [28] = assay: Anti-inflammatory activity in C57BL/6 mouse model of LPS-induced acute lung injury assessed as decrease in number of total cells in BALF at 10 mg/kg, ip treated for 3 days followed by LPS treatment after 1 hr post-compound administration on fourth day measured after 18 hrs post-LPS treatment; format: functional, organism-based; conditions: time 91.0 hrs
Mus musculus [29] = assay: Anti-inflammatory activity in C57BL/6 mouse model of LPS-induced acute lung injury assessed as decrease in IL-6 mRNA level in lung at 10 mg/kg, ip treated for 3 days followed by LPS treatment after 1 hr post-compound administration on fourth day measured after 18 hrs post-LPS treatment by RT-qPCR analysis; format: functional, organism-based; conditions: time 91.0 hrs
RAW264.7 [30] = assay: Anti-inflammatory activity against mouse RAW264.7 cells assessed as inhibition of LPS-induced iNOS level by Western blot analysis; format: functional, cell-based; conditions: dose 50-500 nM
[31] = Half life in Sprague-Dawley rat at 3.5 mg/kg, ip measured for 24 hrs by LC-MS/MS analysis; format: ADME, organism-based; conditions: in vivo
Procathepsin L [32] = molecular target: T1, Procathepsin L; assay: Inhibition of recombinant human Cat L using f Z-Phe-Arg-AMC as substrate preincubated for 30 mins followed by substrate addition
Target sequence in this assay (P07711 whole entry): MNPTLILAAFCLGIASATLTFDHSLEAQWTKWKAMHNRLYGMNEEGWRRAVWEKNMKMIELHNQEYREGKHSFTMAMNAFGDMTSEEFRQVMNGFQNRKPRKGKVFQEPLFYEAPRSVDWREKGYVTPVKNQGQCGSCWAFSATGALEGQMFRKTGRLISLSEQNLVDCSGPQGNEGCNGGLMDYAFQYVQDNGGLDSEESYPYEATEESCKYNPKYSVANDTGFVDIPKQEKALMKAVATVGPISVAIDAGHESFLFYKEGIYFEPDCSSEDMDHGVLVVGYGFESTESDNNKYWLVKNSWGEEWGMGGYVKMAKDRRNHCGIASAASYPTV

[33] = Oral bioavailability in Sprague-Dawley rat at 3.5 mg/kg measured for 24 hrs by LC-MS/MS analysis; format: ADME, organism-based; conditions: in vivo
[34] = Anti-inflammatory activity against HBE cells assessed as inhibition of LPS-induced IL-8 level at 5 uM pretreated for 30 mins followed by LPS treatment for 24 hrs by ELISA relative to control; format: functional; conditions: Homo sapiens, time 24.5 hrs
RAW264.7 [35] = assay: Anti-inflammatory activity against mouse RAW264.7 cells assessed as inhibition of LPS-induced IL-1beta level
[36] = Half life in Sprague-Dawley rat at 3.5 mg/kg, po measured for 24 hrs by LC-MS/MS analysis; format: ADME, organism-based; conditions: in vivo
[37] = AUC (0 to t) in Sprague-Dawley rat at 3.5 mg/kg, ip measured for 24 hrs by LC-MS/MS analysis; format: ADME, organism-based; conditions: in vivo
RAW264.7 [38] = assay: Anti-inflammatory activity against mouse RAW264.7 cells assessed as inhibition of LPS-induced TNF-alpha mRNA level at 50 to 500 nM by RT-qPCR analysis; format: functional, cell-based; conditions: dose 50-500 nM
Mus musculus [39] = assay: as §1, with “alveolar hemorrhage” for “disruption of epithelial cell structures”; format: functional, organism-based; conditions: time 91.0 hrs
RAW264.7 [40] = assay: Anti-inflammatory activity against mouse RAW264.7 cells assessed as inhibition of LPS-induced IL-6 mRNA level at 50 to 500 nM by RT-qPCR analysis; format: functional, cell-based; conditions: dose 50-500 nM
Procathepsin L [41] = molecular target: T1, Procathepsin L; assay: Inhibition of CTSL maturation in HBE cells pretreated for 30 mis followed by LPS treatment for 16 hrs by Western blot analysis; format: cell-based; conditions: dose 0.5-5 µM, time 16.5 hrs
Target sequence in this assay (P07711 114-333 limits assumed): as the sequence (P07711 114-333 limits assumed) above

[42] = Half life in Sprague-Dawley rat at 3.5 mg/kg, iv measured for 24 hrs by LC-MS/MS analysis; format: ADME, organism-based; conditions: in vivo
RAW264.7 [43] = assay: Anti-inflammatory activity against mouse RAW264.7 cells assessed as inhibition of LPS-induced IL-1beta level at 50 to 500 nM; format: functional, cell-based; conditions: dose 50-500 nM
[44] = AUC (0 to infinity) in Sprague-Dawley rat at 3.5 mg/kg, ip measured for 24 hrs by LC-MS/MS analysis; format: ADME, organism-based; conditions: in vivo

AUC(0-t) at 24 h [1]: 1630 ng·h/mL
Activity (Procathepsin L [3]): Active
AUC(0-inf) [7]: 1050 ng·h/mL
IC50 (RAW264.7 [11]): 144 nM
AUC(0-t) at 24 h [12]: 830 ng·h/mL
Cmax [15]: 504 ng/mL
Cmax [18]: 193 ng/mL
Cmax [20]: 331 ng/mL
IC50 (cells [24]): 1070 nM
AUC(0-inf) [25]: 1690 ng·h/mL
IC50 (cells [26]): 2080 nM
half-life [31]: 5.19 h
IC50 (Procathepsin L [32]): 820 nM
bioavailability [33]: 51.1%
IC50 (RAW264.7 [35]): 480 nM
half-life [36]: 6.48 h
AUC(0-t) at 24 h [37]: 1510 ng·h/mL
inhibition (Procathepsin L [41]): Dose-dependent-effect
half-life [42]: 5.06 h
AUC(0-inf) [44]: 1580 ng·h/mL
Structure (SMILES): Cc1ccc(Nc2nccc(-c3cn(C)c4ccccc34)n2)cc1N.Cl
Activity (Mus musculus [2]): Active
Activity (Mus musculus [4]): Active
inhibition (RAW264.7 [5]): Dose-dependent-effect
inhibition (RAW264.7 [6]): Active; Result Indicates Compound Suppresses Mapk Pathway
inhibition (RAW264.7 [8]): Active
Activity (RAW264.7 [9]): Non-toxic
inhibition (HBE [10]): Dose-dependent-effect
inhibition (Mus musculus [13]): Active
Activity (Mus musculus [14]): Active
inhibition at 5 µM [16]: 69%
Activity (Mus musculus [17]): Active
inhibition (HBE [19]): Dose-dependent-effect
Activity (Mus musculus [21]): Active
Activity (Mus musculus [22]): Active
Activity (Mus musculus [23]): Active
Activity (Mus musculus [27]): Active
Activity (Mus musculus [28]): Active
Activity (Mus musculus [29]): Active
inhibition (RAW264.7 [30]): Dose-dependent-effect
inhibition at 5 µM [34]: 76%
inhibition (RAW264.7 [38]): Active
Activity (Mus musculus [39]): Active
inhibition (RAW264.7 [40]): Active
inhibition (RAW264.7 [43]): Active
